{"source": "patent US20250275937A1", "about": "“Methods For Reducing Negative Effects Of Alcohol Consumption” (Honed Life Sciences, LLC, priority 2018, published 2025)", "origin": "cited, not measured here", "key": {"[1]": {"test_system": "acute alcohol (EtOH) intoxication", "conditions": "rats"}, "[2]": {"test_system": "oxidative stress and liver fibrogenesis", "conditions": "mice"}}}
{"molecule": "O=C1c2c(O)cc(O)cc2O[C@H](c2cc(O)c(O)c(O)c2)[C@H]1O", "note": "[DHM, dihydromyricetin]", "values": [{"measurement": "Counteracting acute alcohol (EtOH) intoxication and withdrawal signs (tolerance, increased anxiety, seizure susceptibility)", "setting": "[1]", "result": "highly effective"}, {"measurement": "Action on acute EtOH-induced potentiation of GABA receptors", "setting": "GABA receptors", "result": "antagonizing"}]}
{"molecule": "O=C(O)c1cc(C(=O)O)c2c(n1)C(=O)C(=O)c1cc(C(=O)O)[nH]c1-2", "note": "[PQQ, pyrroloquinoline quinone]", "values": [{"measurement": "Effect on oxidative stress and liver fibrogenesis", "setting": "[2]", "result": "suppresses oxidative stress and liver fibrogenesis"}]}
